The text below walks through data of article PMC117120 (BMC Biochemistry, 2002).

One test addresses T1, Y152A mutant 5-HT3ASR (Mus musculus, UniProt P23979, Y153A).
T1 sequence (P23979 24-483 isoform P23979-2 Y153A): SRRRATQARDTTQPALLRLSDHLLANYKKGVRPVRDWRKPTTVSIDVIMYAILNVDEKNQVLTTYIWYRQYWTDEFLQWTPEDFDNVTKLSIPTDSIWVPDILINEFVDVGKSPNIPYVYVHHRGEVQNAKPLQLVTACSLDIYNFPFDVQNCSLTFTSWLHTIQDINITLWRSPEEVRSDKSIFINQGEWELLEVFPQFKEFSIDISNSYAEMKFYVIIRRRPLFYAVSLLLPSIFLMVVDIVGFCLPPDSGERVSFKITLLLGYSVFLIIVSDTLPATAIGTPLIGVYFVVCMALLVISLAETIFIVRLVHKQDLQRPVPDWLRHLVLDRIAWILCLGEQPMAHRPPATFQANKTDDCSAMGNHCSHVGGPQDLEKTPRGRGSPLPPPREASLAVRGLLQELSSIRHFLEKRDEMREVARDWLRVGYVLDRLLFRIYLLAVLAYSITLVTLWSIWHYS
Put plainly: Whole cell patch clamp, tsA201 cells transfected with Y152A cDNA. Format: cell-based. Particulars: for response amplitude: 8 s, representative trace. On the technique in general: Patch clamp records ionic current or voltage across a cell membrane.

A further test deals with T2, Y140A mutant 5-HT3ASR (Mus musculus, UniProt P23979, Y141A).
T2 sequence (P23979 24-483 isoform P23979-2 Y141A): T1 sequence (P23979 24-483 isoform P23979-2 Y153A) with Y118A, A130Y
The test is described as follows: Whole cell patch clamp, cells transfected with Y140A cDNA. It is filed as cell-based. Conditions: 5-HT concentrations of up to 1 mM.

The next test addresses T3, Y142A mutant 5-HT3ASR (Mus musculus, UniProt P23979, Y143A).
T3 sequence (P23979 24-483 isoform P23979-2 Y143A): T1 sequence (P23979 24-483 isoform P23979-2 Y153A) with Y120A, A130Y
Put plainly: Whole cell patch clamp, cells transfected with Y142A cDNA. It is filed as cell-based. Particulars: 5-HT concentrations of up to 1 mM.

For another test, the target named is T4, wt 5-HT3ASR (Mus musculus, UniProt P23979).
T4 sequence (P23979 24-483 isoform P23979-2 limits assumed): T1 sequence (P23979 24-483 isoform P23979-2 Y153A) with A130Y
Particulars: for response amplitude: 4 s, representative trace.

Residue numbers refer to the chain shown, from its start. Like-named read-outs stand apart in the source and are kept apart here.

On to `NCCc1c[nH]c2ccc(O)cc12` [5-HT, serotonin], for which the “time for response to plateau” value on Y152A mutant 5-HT3ASR is listed as “several seconds”. Moreover, the response amplitude on Y152A mutant 5-HT3ASR (3.0 μM 5-HT) is reported as 0.10 nA; on Y152A mutant 5-HT3ASR (100 μM 5-HT), 0.14 nA; on Y152A mutant 5-HT3ASR (300.0 μM 5-HT), 0.57 nA; on Y152A mutant 5-HT3ASR (1.0 mM 5-HT), 1.0 nA; on wt 5-HT3ASR (0.3 μM 5-HT), 0.03 nA; on wt 5-HT3ASR (1.0 μM 5-HT), 0.96 nA. The response amplitude at wt 5-HT3ASR (3.0 μM 5-HT) came to 2.5 nA; on wt 5-HT3ASR (30.0 μM 5-HT) it was 4.4 nA; on wt 5-HT3ASR (100.0 μM 5-HT) it was 3.9 nA. Besides, the desensitization entry is given as “no desensitization” at Y152A mutant 5-HT3ASR (during the 8 s perfusion time) and “desensitized rapidly” on wt 5-HT3ASR. Moreover, the “whole cell response to 5-HT” value at Y140A mutant 5-HT3ASR and on Y142A mutant 5-HT3ASR was “no responses” throughout. Besides, at wt 5-HT3ASR, the “time to peak response” value is “less than 80 ms”.
